A short description of the assay: ATP-based viability loss in HEK293T cells – cell-based, CellTiter-Glo luminescence, cherry-pick, set 3, cytotoxicity control, dose response (AID 720588). The conditions noted are these: HEK293T viability, CellTiter-Glo ATP luminescence, 72 h. On the technique in general: ATP-based viability assays read luminescence as a measure of living cells.

Active and inactive are the calls of the source.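 How the source made its calls: active means fitted curve falls past a set limit of signal loss at no more than twice the top dose; inconclusive means flat fit between 30 and 70% signal loss, or poor fit; inactive means signal rise, flat within 30%, or crossing too high.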

For the compound `COC(=O)C[C@H]1CC[C@H]2[C@H](COc3ccc(NC(=O)Nc4cccc(Cl)c4)cc3C(=O)N2C)O1`, the activity change, negative = cytotoxicity (at 26 µM (top of the series)) was -28.3% (inactive).

As to `Nc1sc(-c2ccccc2)cc1-c1n[nH]c(=S)n1C1CCCCC1`, the activity change, negative = cytotoxicity (at 26 µM (top of the series)) was -4.9% (inactive). Same read-out and setting: for `Cc1sc2nc(CN3CCC(C)CC3)nc(Cl)c2c1C` the value was 5.44% (inactive); for `C[C@H](CO)N1C[C@H](C)[C@H](CN(C)Cc2ccc(C(=O)Nc3ccccc3N)cc2)Oc2ccc(N(C)C)cc2C1=O`, -25.7% (inactive). For the compound `COC(=O)Cc1ccc(NC(=O)c2ccccc2Cl)cc1`, under “at 26 µM (top of the series)”, the activity change, negative = cytotoxicity is -2.38% (inactive). `COc1ccc(C(C)(O)c2nc(-c3cccc(F)c3)cs2)cc1` (stereo unspecified): the activity change, negative = cytotoxicity (at 26 µM (top of the series)) was -24.1% (inactive). Regarding `CC(NC(=O)c1ccco1)c1nc(-c2ccc(C(C)(C)C)cc2)no1` (stereo unspecified), where the note is “at 26 µM (top of the series)”, the activity change, negative = cytotoxicity was -23% (inactive). For the compound `C[C@H]1CN([C@@H](C)CO)C(=O)c2cccc(NC(=O)CCCCCC(=O)Nc3ccccc3N)c2O[C@@H]1CN(C)Cc1ccc2c(c1)OCO2`, the activity change, negative = cytotoxicity (at 26 µM (top of the series)) was -20.1% (inactive). With `Nc1ccc(-c2cc3ccccc3c(=O)o2)cc1`, where the note is “at 26 µM (top of the series)”, the activity change, negative = cytotoxicity was -6.69% (inactive). With `COC(=O)C[C@@H]1CC[C@@H]2[C@@H](COc3ccc(NC(=O)Nc4ccccc4C)cc3C(=O)N2C)O1`, the activity change, negative = cytotoxicity (at 23.5 µM (top of the series)) was 19.2% (inactive). In the case of `COc1cc(-c2cnc3c(NC=O)cc(-c4cccc(NC(C)=O)c4)cn23)cc(OC)c1OC`, the activity change, negative = cytotoxicity (at 26 µM (top of the series)) is 27.3% (inactive). As to `C/C(=N\OCc1cccc(C(=O)O)c1)c1ccc(Cl)cc1`, the activity change, negative = cytotoxicity (at 26 µM (top of the series)) was -6.62% (inactive). Regarding `C[C@@H]1CN([C@@H](C)CO)C(=O)Cc2cc(NS(=O)(=O)c3cccs3)ccc2O[C@H]1CN(C)Cc1ccc(Cl)c(Cl)c1`, the activity change, negative = cytotoxicity (at 26 µM (top of the series)) was -34.4% (inactive). For `COc1ccc(NC(=O)N(C)[C@H]2C[C@H]3c4[nH]c5ccccc5c4CCN3C(=O)[C@H]2CO)cc1`, the activity change, negative = cytotoxicity (at 26 µM (top of the series)) was -20.7% (inactive).

For `CCN1C/C(=C/c2ccc(OC)c(O)c2)C(=O)/C(=C/c2ccc(OC)c(O)c2)C1`, the activity change, negative = cytotoxicity (at 26 µM (top of the series)) is -23.5% (inactive). Turning to `CCN1CCN(/C=N/c2nc3c(s2)CCCC3)CC1`, the activity change, negative = cytotoxicity (at 26 µM (top of the series)) is -6.91% (inactive).

Turning to `C[C@H]1CCCCO[C@H](CN(C)Cc2ccc(C(F)(F)F)cc2)[C@@H](C)CN([C@@H](C)CO)C(=O)c2cc(NC(=O)Nc3ccccc3)ccc2O1`, the activity change, negative = cytotoxicity (at 26 µM (top of the series)) is 0.212% (inactive). Turning to `COc1cccc(S(=O)(=O)N(C)C[C@H]2OCc3cnnn3CCCC(=O)N([C@@H](C)CO)C[C@H]2C)c1`, for the setting “at 26 µM (top of the series)”, the activity change, negative = cytotoxicity was 5% (inactive).

Consider `CN1C/C(=C/c2ccsc2)C(=O)/C(=C/c2ccsc2)C1`, for which, where the note is “at 26 µM (top of the series)”, the activity change, negative = cytotoxicity was -30% (inactive). Regarding `Cc1ccc(/C=C2\SC(=S)N(CCC(=O)NNC(=O)c3ccccc3O)C2=O)cc1`, the activity change, negative = cytotoxicity (at 26 µM (top of the series)) was 24.1% (inactive). Consider `C/C=C/c1ccc(C2[C@@H]3CN(C(=O)Cc4ccccc4)C[C@H]2N3)cc1` (stereo partly specified), for which the activity change, negative = cytotoxicity (at 26 µM (top of the series)) was 18% (inactive). Take `O=c1c2ccccc2oc2ccc(C#CC3(O)CCCCC3)cc12`: where the note is “at 26 µM (top of the series)”, the activity change, negative = cytotoxicity is -6.65% (inactive). Take `COc1ccccc1N(/N=C1\Sc2ccccc2C1=O)C(C)=O`: where the note is “at 26 µM (top of the series)”, the activity change, negative = cytotoxicity is -23.6% (inactive). Take `OCCN1CCN(C(=S)c2ccc(-c3ccccc3)cc2)CC1`: for the setting “at 26 µM (top of the series)”, the activity change, negative = cytotoxicity was -3.37% (inactive). Consider `CCc1ccc(/C=C2\SC(=S)N(CCCC(=O)NCCCN3CCOCC3)C2=O)cc1`, for which, for the setting “at 26 µM (top of the series)”, the activity change, negative = cytotoxicity was -13.1% (inactive).

Consider `CCOc1ccc(-c2noc(CCC(=O)O)n2)cc1`, for which, for the setting “at 26 µM (top of the series)”, the activity change, negative = cytotoxicity is -18.9% (inactive).

For `O=C(CNC(=O)Cc1ccccc1)N=Nc1c(O)n(Cc2ccc3c(c2)OCO3)c2ccccc12`, the activity change, negative = cytotoxicity (at 26 µM (top of the series)) is -23.2% (inactive). As to `Oc1c(Cl)cc(Cl)c2cccnc12`, the activity change, negative = cytotoxicity (at 26 µM (top of the series)) is -45.5% (inactive). `Cc1cc(Br)ccc1N=C1C(=O)Nc2ccccc21`: the activity change, negative = cytotoxicity (at 26 µM (top of the series)) was -16.9% (inactive). With `CCc1ccc(/C=C2\SC(=S)N(CCCC(=O)NC3=NCCS3)C2=O)cc1`, the activity change, negative = cytotoxicity (at 26 µM (top of the series)) was -17.5% (inactive).

In the case of `COc1ccc2nc(-c3ccc(F)cc3)sc2c1`, the activity change, negative = cytotoxicity (at 26 µM (top of the series)) is -5.49% (inactive). On the same count and under the same terms, as for `Nc1ccc2oc(-c3cc(Br)ccc3Cl)nc2c1`, the figure is 19.3% (inactive); as for `COc1ccc(CN(C)c2ncnc3sccc23)c(OC)c1OC`, -29.1% (inactive). Regarding `Cc1cccc(NC(=O)CN2CCN(C(=O)CNC(=O)c3ccc(-c4ccccc4)cc3)CC2)c1C`, the activity change, negative = cytotoxicity (at 26 µM (top of the series)) was -18.2% (inactive). On the same count and under the same terms, for `CC(=O)c1ccc(N(C(=O)Cn2nnc3ccccc32)C(C(=O)NCc2ccccc2)c2ccccn2)cc1` (stereo unspecified) the value was -21.8% (inactive). Regarding `COc1cc(C(c2c(C)[nH][nH]c2=O)c2c(C)[nH][nH]c2=O)ccc1OC(C)C`, under “at 26 µM (top of the series)”, the activity change, negative = cytotoxicity is -1.41% (inactive). Still for that read-out and setting: as for `O=C(NC(=O)c1ccccc1)Nc1ccccc1`, the figure is -31.5% (inactive). On the same count and under the same terms, as for `COc1cc(C(=O)N2CCC(N3CCN(C)CC3)CC2)ccc1Nc1ncc2c(n1)N(C)c1ccccc1C(=O)N2C`, the figure is -1.13% (inactive). Take `CCCCNC1=CC(=O)C(=O)c2ccccc21`: the activity change, negative = cytotoxicity (at 26 µM (top of the series)) is -32.1% (inactive).

`C[C@@H]1CN([C@H](C)CO)C(=O)CCCn2nncc2CO[C@H]1CN(C)Cc1ccc(Oc2ccccc2)cc1`: the activity change, negative = cytotoxicity (at 26 µM (top of the series)) is -3.49% (inactive). Consider `O=C(O)c1ccccc1C(=O)Nc1ccc(Oc2cccc3ccccc23)cc1`, for which the activity change, negative = cytotoxicity (at 26 µM (top of the series)) is -24.2% (inactive). Consider `COc1ccc(C2=Nn3c([n+](C)c4ccccc43)SC2)cc1`, for which the activity change, negative = cytotoxicity (at 26 µM (top of the series)) was -33.2% (inactive). `COC(=O)C[C@@H]1CC[C@@H]2[C@@H](COc3ccc(NC(=O)Nc4cccc(Cl)c4)cc3C(=O)N2C)O1`: the activity change, negative = cytotoxicity (at 23.5 µM (top of the series)) is 4.77% (inactive). As for `COC(=O)[C@H]1[C@H](CO)[C@H]2Cn3c(ccc(-c4ccccc4F)c3=O)[C@@H]1N2CC1CCCC1`, the activity change, negative = cytotoxicity (at 26 µM (top of the series)) was 56.8% (inactive). On to `Nc1ccc(-c2cc3ccccc3oc2=O)cc1`, for which, where the note is “at 26 µM (top of the series)”, the activity change, negative = cytotoxicity was -22% (inactive). In the case of `O=C(Nc1cccc(Oc2ccc3c(c2)C(=O)NC3=O)c1)c1cccs1`, the activity change, negative = cytotoxicity (at 26 µM (top of the series)) was -22.5% (inactive). `COc1ccccc1NC(=O)N1[C@@H]2CNC[C@H]1[C@@H]2c1ccc(-c2ccc(C#N)cc2)cc1`: the activity change, negative = cytotoxicity (at 23.5 µM (top of the series)) was -30.3% (inactive). As for `COc1ccccc1NS(=O)(=O)c1cc(NC(=O)c2cc3ccccc3oc2=O)ccc1C`, the activity change, negative = cytotoxicity (at 26 µM (top of the series)) is -6.46% (inactive). Regarding `CC1(C)Oc2cc3oc(-c4cc(O)cc(O)c4)cc3cc2CC1O` (stereo unspecified), the activity change, negative = cytotoxicity (at 26 µM (top of the series)) is -1.31% (inactive). Take `Cc1ccsc1C(=O)OCC(=O)NCCC1=CCCCC1`: the activity change, negative = cytotoxicity (at 26 µM (top of the series)) is -24.7% (inactive). As for `COCC(=O)Nc1ccc2c(c1)[C@@H]1C[C@@H](CC(=O)NCc3ccc(-c4ccccc4)cc3)O[C@@H](CO)[C@@H]1O2`, the activity change, negative = cytotoxicity (at 26 µM (top of the series)) was 13.6% (inactive). As to `C[C@H]1CN([C@@H](C)CO)C(=O)Cc2cc(NC(=O)CCCCCC(=O)Nc3ccccc3N)ccc2O[C@H]1CN(C)Cc1ccc(Cl)c(Cl)c1`, the activity change, negative = cytotoxicity (at 23.5 µM (top of the series)) is -33.8% (inactive). Consider `N/C(Cc1nc(-c2ccc(F)cc2)cs1)=N\O`, for which the activity change, negative = cytotoxicity (at 26 µM (top of the series)) was -17.4% (inactive). As to `CCCCN=C(NNc1ccc(Br)cc1)C(=O)OCC`, under “at 26 µM (top of the series)”, the activity change, negative = cytotoxicity was -39.4% (inactive).

In the case of `COc1cc(/C=N/NS(=O)(=O)c2ccc(C)cc2)ccc1OCc1cccc(C(=O)O)c1`, the activity change, negative = cytotoxicity (at 26 µM (top of the series)) is 5.87% (inactive).

As to `COc1ccc(/C=C2\Oc3ccccc3C2=O)cc1`, the activity change, negative = cytotoxicity (at 26 µM (top of the series)) is 7.88% (inactive). For `CC(C)(C)C(=O)Nc1ccc(N=Nc2ccccc2)cc1`, the activity change, negative = cytotoxicity (at 26 µM (top of the series)) was -5.33% (inactive).

For `COc1ccc(S(=O)(=O)N=Nc2c(O)[nH]c3ccccc23)cc1`, under “at 26 µM (top of the series)”, the activity change, negative = cytotoxicity was 16.2% (inactive).

`C/C=C/c1ccc([C@H]2[C@@H](CO)N3C(=O)CN(S(=O)(=O)c4cccc(F)c4)C[C@@H]23)cc1`: the activity change, negative = cytotoxicity (at 26 µM (top of the series)) was 34.3% (inactive). For `CCOc1ccc(/C=C2\CCc3ccccc3C2=O)cc1`, for the setting “at 26 µM (top of the series)”, the activity change, negative = cytotoxicity is -4.04% (inactive). Turning to `COC(=O)C[C@@H]1CC[C@@H]2[C@@H](COc3ccc(NC(=O)Nc4ccc(C#N)cc4)cc3C(=O)N2C)O1`, the activity change, negative = cytotoxicity (at 26 µM (top of the series)) was 47.6% (inactive).

With `Cc1c(N=Cc2cc(Br)cc(Br)c2O)cccc1C(=O)O`, under “at 26 µM (top of the series)”, the activity change, negative = cytotoxicity is 6.56% (inactive).

Take `CC(=O)Nc1cc(C(=O)NCc2ccco2)ccc1Sc1ccc(F)cc1`: the activity change, negative = cytotoxicity (at 26 µM (top of the series)) is 12.1% (inactive). On the same count and under the same terms, as for `O=C(CNC(c1ccccc1)c1ccccc1)Nc1ccccc1-c1ccccc1`, the figure is -23.7% (inactive); as for `Cc1ccc(S(=O)(=O)Nc2ccc3c(c2)C(=O)N([C@H](C)CO)C[C@@H](C)[C@@H](CN(C)Cc2ccc(C(=O)Nc4ccccc4N)cc2)O3)cc1`, -2.74% (inactive). Still for that read-out and setting: as for `C/C(=N\N(c1ccccc1)c1ccccc1)c1ccco1`, the figure is -14.9% (inactive); as for `CN(c1ccc(NC(=O)CCc2c[nH]c3ccccc23)cc1)c1ccccn1`, -4.8% (inactive); as for `O=C(O)c1cccc(N/N=C/c2cccs2)c1`, -19.1% (inactive). As for `C[C@@H]1CN([C@H](C)CO)C(=O)c2cc(NS(=O)(=O)c3ccc(Cl)cc3)ccc2O[C@@H]1CN(C)Cc1ccc(Cl)c(Cl)c1`, where the note is “at 26 µM (top of the series)”, the activity change, negative = cytotoxicity is -9.51% (inactive). The same measure, in the same setting: for `O=C(NC1CCCC1)C(c1ccccc1)n1c(CSCCOc2ccccc2)nc2ccccc21` (stereo unspecified) the value was -14.3% (inactive); for `CC(C)c1oc(=O)cc2c1[C@@H](O)[C@H]1OC(=O)[C@@]3(C)CC[C@@H](O)[C@@]2(C)C13` (stereo partly specified), -27.6% (inactive).

For the origin of these results see PubChem BioAssay AID720588 (Broad Institute, 2013).
